IC50 data for 41 molecules are collected here from patent US11046691B1 (IDEAYA BIOSCIENCES, INC., priority 2018, dated 2021).

hMAT2A, sequence (P31153 whole entry): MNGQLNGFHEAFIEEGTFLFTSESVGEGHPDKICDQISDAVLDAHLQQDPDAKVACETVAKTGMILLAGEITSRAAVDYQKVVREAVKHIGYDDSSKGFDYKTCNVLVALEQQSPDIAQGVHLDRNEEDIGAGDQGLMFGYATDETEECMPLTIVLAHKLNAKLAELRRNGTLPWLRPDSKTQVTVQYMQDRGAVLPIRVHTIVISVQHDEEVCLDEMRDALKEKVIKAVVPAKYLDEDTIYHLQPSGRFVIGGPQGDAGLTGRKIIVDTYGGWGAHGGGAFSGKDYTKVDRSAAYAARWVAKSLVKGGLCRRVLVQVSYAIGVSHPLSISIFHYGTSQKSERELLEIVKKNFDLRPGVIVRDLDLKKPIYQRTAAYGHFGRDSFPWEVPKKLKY

For one assay, the target named is hMAT2A (Homo sapiens (Human), UniProt P31153). Briefly: Phosphate Sensor Fluorescence Assay (MAT2A enzyme inhibition). Type of assay: biochemical. As to conditions: L-methionine 500 uM, ATP 500 uM, class symbols. The method in brief:
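Recombinant MAT2A preincubated 15 min at room temperature with compound, then reacted 1 h at room temperature with 500 uM L-methionine and 500 uM ATP in Tris pH 7.5 buffer containing PNP/7-MEG.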
`O=c1nc(NCC(F)F)c2ccc(C(F)(F)F)cc2n1-c1cccnc1` [Example 325, 4-[(2,2-difluoroethyl)amino]-1-(pyridin-3-yl)-7-(trifluoromethyl)hydro-quinazolin-2-one] came in with an IC50 of under 200 nM.
Regarding `O=c1nc(N2CCC2)c2ccc(N3CCC3)cc2n1-c1ccccc1` [Example 94, 4,7-di(azetidin-1-yl)-1-phenylhydro-quinazolin-2-one], the concentration for half-maximal inhibition (IC50) was in the range of 500 to 1000 nM.
Same read-out and setting: with `C[C@]1(O)C[C@H](Nc2nc(=O)n(-c3ccccc3Cl)c3nc(C(F)(F)F)ccc23)C1` [Example 300, 4-[((trans)-3-hydroxy-3-methylcyclo-butyl)amino]-1-(2-chlorophenyl)-7-(trifluoromethyl)pyrido[2,3-d]pyrimidin-2(1H)-one] the figure was under 200 nM.
Still for that read-out and setting: with `[2H]C([2H])([2H])Nc1nc(=O)n(-c2ccccc2Br)c2cc(Cl)ccc12` [Example 368, 1-(2-bromophenyl)-7-chloro-4-((methyl-d3)amino)quinazolin-2(1H)-one] the figure was under 200 nM.
On the same count and under the same terms, to `COc1nc(=O)n(-c2cccnc2C)c2cc(C(F)(F)F)ccc12` [Example 405] belongs under 200 nM; to `CC1(C)[C@H](O)C[C@@H]1Nc1nc(=O)n(-c2ccccc2Cl)c2nc(C(F)(F)F)ccc12` (relative stereo) [Example 276, 4-[((cis)-3-hydroxy-2,2-dimethylcyclo-butyl)amino]-1-(2-chlorophenyl)-7-(trifluoromethyl)-pyrido[2,3-d]-pyrimidin-2(1H)-one], 1000 to 10000 nM; to `CCc1nc(=O)n(-c2ccccc2)c2cc(Cl)ccc12` [Example 105, 7-chloro-4-ethyl-1-phenylhydro-quinazolin-2-one], 200 to 500 nM.
As for `O=c1nc(NCC(F)(F)F)c2ccc(C3CC3)cc2n1-c1ccccc1` [Example 385, 7-cyclopropyl-1-phenyl-4-[(2,2,2-trifluoroethyl)amino]hydroquinazolin-2-one], the half-inhibitory concentration (IC50) was under 200 nM.
As for `O=c1nc(N2CC(O)C2)c2ccc(C3CC3)cc2n1-c1ccccc1` [Example 372, 7-cyclopropyl-4-(3-hydroxyazetidin-1-yl)-1-phenylhydroquinazolin-2-one], the IC50 was under 200 nM.
In turn, `CNc1nc(=O)n(-c2cccc(C(N)=O)c2)c2cc(Cl)ccc12` [Example 134, 3-[7-chloro-4-(methylamino)-2-oxo-hydroquinazolin-1-yl]benzamide] returned an IC50 of under 200 nM.
The same measure, in the same setting: with `CO[C@H]1C[C@H](Nc2nc(=O)n(-c3ccccc3Cl)c3nc(C(F)(F)F)ccc23)C1` [Example 301] the figure was under 200 nM; with `Cn1ccc(CNc2nc(=O)n(-c3ccccc3)c3cc(Cl)ccc23)n1` [Example 233, 7-chloro-4-1{[(1-methylpyrazol-3-yl)-methyl]amino}-1-phenylhydro-quinazolin-2-one], under 200 nM; with `CNc1nc(=O)n(-c2cccc(C#N)c2)c2nc(C(F)(F)F)ccc12` [Example 179, 3-[4-(methylamino)-2-oxo-7-(trifluoro-methyl)pyrido[2,3-d]pyrimidin-1(2H)-yl)benzonitrile], under 200 nM.
Consider `Nc1nc(=O)n(-c2ccccc2)c2cc(Cl)cc(-n3cccn3)c12` [Example 387, 4-amino-7-chloro-1-phenyl-5-pyrazol-1-ylhydroquinazolin-2-one], for which the half-maximal inhibitory concentration (IC50) was 1000 to 10000 nM.
The same measure, in the same setting: to `O=c1nc(NCC(F)F)c2ccc(C(F)(F)F)cc2n1-c1ncccn1` [Example 122, 4-[(2,2-difluoroethyl)amino]-1-pyrimidin-2-yl-7-(trifluoromethyl)hydro-quinazolin-2-one] belongs under 200 nM.
As for `O=c1nc(N[C@@H]2C[C@@H]2F)c2ccc(C3CC3)cc2n1-c1ccccc1Cl` [Example 413, 4-[((2S,1R)-2-fluorocyclopropyl)amino]-1-(2-chlorophenyl)-7-cyclopropyl-hydroquinazolin-2-one], the 50% inhibitory concentration (IC50) is under 200 nM.
`CN(C)C(=O)C1CN(c2nc(=O)n(-c3ccccc3)c3cc(Cl)ccc23)C1` [Example 159, [1-(7-chloro-2-oxo-1-phenylhydro-quinazolin-4-yl)azetidin-3-yl]-N,N-dimethylcarboxamide] returned a half-maximal inhibitory concentration (IC50) of under 200 nM.
For `COc1nc(=O)n(-c2ccccc2Cl)c2cc(C3CC3)ccc12` [Example 423, 1-(2-chlorophenyl)-7-cyclopropyl-4-methoxyhydroquinazolin-2-one], the half-maximal inhibitory concentration (IC50) is under 200 nM.
Same read-out and setting: with `CC1CCN1c1nc(=O)n(-c2ccccc2)c2cc(Cl)ccc12` (centres unmarked) [Example 223, 7-chloro-4-(2-methylazetidin-1-yl)-1-phenylhydroquinazolin-2-one] the figure was under 200 nM.
As for `O=c1nc(N2CC[C@@H](O)C2)c2ccc(Cl)cc2n1-c1ccc2[nH]cnc2c1` [Example 281, (R)-7-chloro-4-(3-hydroxypyrrolidin-1-yl)-1-(1H-benzimidazol-5-yl)quinazolin-2(1H)-one], the IC50 was under 200 nM.
The molecule `O=c1nc(Nc2cnoc2)c2cc(Cl)c(Br)cc2n1-c1ccccc1Cl` [Example 412, 7-bromo-6-chloro-1-(2-chlorophenyl)-4-(isoxazol-4-ylamino)hydroquinazolin-2-one] came in with an IC50 of under 200 nM.
On to `C[C@@H](O)CNc1nc(=O)n(-c2ccccc2Cl)c2nc(C(F)(F)F)ccc12` [Example 294, 4-[((2R)-2-hydroxypropyl)amino]-1-(2-chlorophenyl)-7-(trifluoromethyl)-pyrido[2,3-d]pyrimidin-2(1H)-one], for which the IC50 was under 200 nM.
The same measure, in the same setting: to `O=c1nc(NCC2COC2)c2ccc(Cl)cc2n1-c1ccccc1` [Example 232, 7-chloro-4-[(oxetan-3-ylmethyl)amino]-1-phenylhydroquinazolin-2-one] belongs under 200 nM; to `CNc1nc(=O)n(-c2cccnc2C)c2nc(C(F)(F)F)ccc12` [Example 380, 4-(methylamino)-1-(2-methylpyridin-3-yl)-7-(trifluoromethyl)pyrido[2,3-d]-pyrimidin-2(1H)-one], under 200 nM.
As for `O=c1nc(N2CC[C@@H](O)C2)c2ccc(Cl)cc2n1-c1ccc2[nH]ncc2c1` [Example 279, (R)-7-chloro-4-(3-hydroxypyrrolidin-1-yl)-1-(1H-indazol-5-yl)quinazolin-2(1H)-one], the half-maximal inhibitory concentration (IC50) is under 200 nM.
In turn, `Cc1ccccc1-n1c(=O)nc(N2CC(O)C2)c2ccc(C(F)(F)F)nc21` [Example 165] came in with an IC50 of under 200 nM.
`O=c1[nH]c(=O)n(-c2ccc3[nH]cnc3c2)c2cc(Cl)ccc12` [Example 340, 1-(1H-benzo[d]imidazol-5-yl)-7-chloro-quinazoline-2,4(1H,3H)-dione] displayed an IC50 of 200 to 500 nM.
On the same count and under the same terms, with `Cc1c(O)cccc1-n1c(=O)[nH]c(=O)c2ccc(Cl)cc21` [Example 110, 7-chloro-1-(3-hydroxy-2-methylphenyl)-1,3-dihydroquinazoline-2,4-dione] the figure was under 200 nM; with `O=c1nc(N2CC[C@@H](O)C2)c2ccc(Cl)cc2n1-c1ccccc1` [Example 239, 4-((3R)-3-hydroxypyrrolidinyl)-7-chloro-1-phenylhydroquinazolin-2-one], under 200 nM; with `O=c1nc(NCC(F)F)c2ccc(C(F)(F)F)nc2n1-c1ccccc1` [Example 137, 4-((2,2-difluoroethyl)amino)-1-phenyl-7-(trifluoromethyl)pyrido[2,3-d]pyrimidin-2(1H)-one], under 200 nM.
Still for that read-out and setting: to `CNc1nc(=O)n(-c2ncccc2Cl)c2nc(C(F)(F)F)ccc12` [Example 261, 1-(3-chloro(2-pyridyl))-4-(methyl-amino)-7-(trifluoromethyl)pyrido[2,3-d]-pyrimidin-2(1H)-one] belongs under 200 nM.
For the molecule `C[C@@]1(O)CCN(c2nc(=O)n(-c3ccccc3)c3cc(Cl)ccc23)C1` [Example 217, 4-((3R)-3-hydroxy-3-methylpyrrolidin-1-yl)-7-chloro-1-phenylhydroquinazolin-2-one], the 50% inhibitory concentration (IC50) was in the range of 200 to 500 nM.
On the same count and under the same terms, with `Cc1ccc2c(N3CC(O)C3)nc(=O)n(-c3ccccc3)c2n1` [Example 384, 4-(3-hydroxyazetidin-1-yl)-7-methyl-1-phenylpyrido[2,3-d]pyrimidin-2(1H)-one] the figure was under 200 nM; with `CNc1nc(=O)n(-c2cccnc2)c2cc(C(F)(F)F)ccc12` [Example 341, 4-(methylamino)-1-(pyridin-3-yl)-7-(trifluoromethyl)hydroquinazolin-2-one], under 200 nM; with `C[C@]1(O)C[C@@H](Nc2nc(=O)n(-c3ccccc3Cl)c3nc(C(F)(F)F)ccc23)C1` [Example 268, 1-(2-chlorophenyl)-4-(((1s,3s)-3-hydroxy-3-methylcyclobutyl)amino)-7-(trifluoromethyl)pyrido[2,3-d]pyrimidin-2(1H)-one], under 200 nM.

Staying with this assay, now noted: L-methionine 500 uM, ATP 500 uM, numeric bound.
The molecule `O=c1[nH]c(=O)n(-c2ccccc2Cl)c2c(Cl)c(C(F)(F)F)ccc12` [Example 360, 8-chloro-1-(2-chlorophenyl)-7-(trifluoro-methyl)pyrido[2,3-d]pyrimidine-2,4(1H,3H)-dione-1] gave an IC50 of over 10000 nM.
With `CNc1nc(=O)n(-c2ccccc2Cl)c2c(Cl)c(C(F)(F)F)ccc12` [Example 342, 8-chloro-1-(2-chlorophenyl)-4-(methylamino)-7-(trifluoromethyl)-hydroquinazolin-2-one], the concentration for half-maximal inhibition (IC50) was over 10000 nM.
On the same count and under the same terms, to `Cc1ccccc1-n1c(=O)[nH]c(=O)c2ccc(C3CC3)cc21` [Example 375, 7-cyclopropyl-1-(o-tolyl)quinazoline-2,4(1H,3H)-dione] belongs over 10000 nM; to `CNc1nc(=O)n(-c2ccccc2)c2cc(Cl)cc(-n3cccn3)c12` [Example 208, 7-chloro-4-(methylamino)-1-phenyl-5-(1H-pyrazol-1-yl)quinazolin-2(1H)-one], over 10000 nM; to `O=c1nc(O)c2c(-c3ccncc3)cc(Cl)cc2n1-c1ccccc1` [Example 291, 7-chloro-4-hydroxy-1-phenyl-5-(pyridin-4-yl)quinazolin-2(1H)-one], over 10000 nM.
As for `CNc1nc(=O)n(-c2ccccc2)c2cc(Cl)cc(OC3CNC3)c12` [Example 85, 5-azetidin-3-yloxy-7-chloro-4-(methyl-amino)-1-phenylhydroquinazolin-2-one], the IC50 is over 10000 nM.
